Reference: patent US9809623B2, “α4β7 peptide monomer and dimer antagonists” (Protagonist Therapeutics, Inc., priority 2014, dated 2017)
Numbered stars: 1 amine (or outer) side, 2 acyl side, 3 side chain; on linkers, the order of the positions; unused ones are H or OH. Bridge positions count the residues as written; N and C are the ends. Square brackets hold non-standard residues; d marks the D form. Peptide text beside a SMILES is read from it. I, II: the chains in the order shown. X2 = O=C(CCOCCOCCOCCOCCOCCOCCOCCOCCOCCOCCOCCOCCOCCOCCOCCOCCOCCOCCOCCOCCOCCOCCOCCOCCOCCC(=O)[*:2])[*:1]; Phe(4-COOH) = N[C@@H](Cc1ccc(C(=O)O)cc1)C(=O)O; Phe(4-tBu) = CC(C)(C)c1ccc(C[C@H](N)C(=O)O)cc1; Bip = N[C@@H](Cc1ccc(-c2ccccc2)cc1)C(=O)O; 1Nal = N[C@@H](Cc1cccc2ccccc12)C(=O)O; 2Nal = N[C@@H](Cc1ccc2ccccc2c1)C(=O)O; Diglycolyl = O=C(COCC(=O)[*:2])[*:1]; NMeR = CN[C@@H](CCCNC(=N)N)C(=O)O; β3hE = N[C@@H](CCC(=O)O)CC(=O)O; NMeK = CN[C@@H](CCCCN)C(=O)O; Pen = CC(C)(S)[C@H](N)C(=O)O; dNMeK = CN[C@H](CCCCN)C(=O)O

target: T1, α4β1 (Homo sapiens, UniProt P05556+P13612, DEL729-798); assay: α4β1-VCAM Competition ELISA; assay type: binding; settings: Table 3-B, Selectivity (α4β1); range classes; read-out: α4β1 ELISA IC50
T1 construct: purchased R&D Systems 5668-A4
T1 sequence (P13612 34-977 limits assumed, stated change not applied): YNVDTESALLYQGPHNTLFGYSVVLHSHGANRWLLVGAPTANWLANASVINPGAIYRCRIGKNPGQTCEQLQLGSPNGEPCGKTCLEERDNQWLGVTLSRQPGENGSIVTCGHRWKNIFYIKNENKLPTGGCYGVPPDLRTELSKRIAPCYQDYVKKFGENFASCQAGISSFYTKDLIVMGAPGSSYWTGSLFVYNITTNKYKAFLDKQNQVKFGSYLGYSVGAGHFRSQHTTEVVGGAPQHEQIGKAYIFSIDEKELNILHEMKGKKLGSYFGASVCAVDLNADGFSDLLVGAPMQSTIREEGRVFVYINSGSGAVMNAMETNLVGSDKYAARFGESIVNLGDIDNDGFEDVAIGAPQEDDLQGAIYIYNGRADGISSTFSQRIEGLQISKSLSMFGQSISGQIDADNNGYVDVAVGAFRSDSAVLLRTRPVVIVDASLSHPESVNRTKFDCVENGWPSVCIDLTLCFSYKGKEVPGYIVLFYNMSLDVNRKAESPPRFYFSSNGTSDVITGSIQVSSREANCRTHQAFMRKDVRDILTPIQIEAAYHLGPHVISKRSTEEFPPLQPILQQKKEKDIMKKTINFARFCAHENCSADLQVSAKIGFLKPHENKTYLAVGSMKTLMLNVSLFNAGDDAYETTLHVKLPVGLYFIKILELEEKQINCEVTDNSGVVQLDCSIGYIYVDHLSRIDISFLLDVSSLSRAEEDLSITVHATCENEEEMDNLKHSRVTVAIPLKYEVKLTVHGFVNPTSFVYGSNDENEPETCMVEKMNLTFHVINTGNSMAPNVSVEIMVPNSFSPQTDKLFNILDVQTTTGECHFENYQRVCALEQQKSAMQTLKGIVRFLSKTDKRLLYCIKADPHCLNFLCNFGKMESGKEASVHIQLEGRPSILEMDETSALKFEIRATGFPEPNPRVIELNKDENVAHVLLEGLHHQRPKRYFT
T1 sequence (P05556 21-728 limits assumed, stated change not applied): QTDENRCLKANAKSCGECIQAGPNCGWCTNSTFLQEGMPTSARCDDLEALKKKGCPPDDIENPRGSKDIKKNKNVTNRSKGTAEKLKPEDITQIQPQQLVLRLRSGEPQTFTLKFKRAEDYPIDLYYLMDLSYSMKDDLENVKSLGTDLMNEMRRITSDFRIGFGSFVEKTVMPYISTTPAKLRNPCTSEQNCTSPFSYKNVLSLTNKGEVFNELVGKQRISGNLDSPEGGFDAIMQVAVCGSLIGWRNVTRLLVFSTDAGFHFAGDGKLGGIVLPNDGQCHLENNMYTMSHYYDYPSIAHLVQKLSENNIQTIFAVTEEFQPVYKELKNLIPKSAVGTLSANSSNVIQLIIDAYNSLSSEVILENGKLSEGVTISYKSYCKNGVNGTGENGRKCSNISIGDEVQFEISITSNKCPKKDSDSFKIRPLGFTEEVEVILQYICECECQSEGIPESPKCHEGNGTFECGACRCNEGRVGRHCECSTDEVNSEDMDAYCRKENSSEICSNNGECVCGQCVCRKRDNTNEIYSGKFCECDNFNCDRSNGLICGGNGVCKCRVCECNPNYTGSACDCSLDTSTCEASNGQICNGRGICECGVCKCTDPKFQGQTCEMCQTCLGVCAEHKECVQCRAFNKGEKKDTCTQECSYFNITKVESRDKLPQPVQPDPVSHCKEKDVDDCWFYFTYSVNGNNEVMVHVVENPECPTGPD
Summary of the method: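 ELISA plates were coated with VCAM-1 Fc at 400 ng/well. Peptide dilutions (highest final 100 μM) and 60 nM α4β1 were incubated 2 h at 37 °C in pH 7.6 Tris buffer containing 1 mM Mn2+ or Mg2+. Integrin retained on the plate was detected by 9F10 antibody, then HRP secondary, with TMB absorbance at 450 nm.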

Q: CC(=O)N[C@@H]1C(=O)N(C)[C@@H](CCCNC(=N)N)C(=O)N[C@@H](CO)C(=O)N[C@@H](CC(=O)O)C(=O)N[C@@H]([C@@H](C)O)C(=O)N[C@@H](CC(C)C)C(=O)N[C@H](C(=O)N[C@@H](Cc2c[nH]c3ccccc23)C(=O)N[C@@H](CCC(=O)O)C(=O)N[C@H](CCCCNC(=O)COCC(=O)NCCCC[C@@H](NC(=O)[C@H](CCC(=O)O)NC(=O)[C@H](Cc2c[nH]c3ccccc23)NC(=O)[C@H]2NC(=O)[C@H](CC(C)C)NC(=O)[C@H]([C@@H](C)O)NC(=O)[C@H](CC(=O)O)NC(=O)[C@H](CO)NC(=O)[C@H](CCCNC(=N)N)N(C)C(=O)[C@@H](NC(C)=O)C(C)(C)SSC2(C)C)C(=O)O)C(=O)O)C(C)(C)SSC1(C)C [compound 78] (I: Ac-[Pen][NMeR]SDTL[Pen]WE[dK]-OH / II: Ac-[Pen][NMeR]SDTL[Pen]WE[dK]-OH; disulfide I:1-I:7, II:1-II:7; linker I:10-II:10 via Diglycolyl) was tested. Which IC50 did it give?
A: 100 to 500 nM

Q: How did the IC50 turn out when CC(=O)N[C@@H]1C(=O)N(C)[C@@H](CCCNC(=N)N)C(=O)N[C@@H](CO)C(=O)N[C@@H](CC(=O)O)C(=O)N[C@@H]([C@@H](C)O)C(=O)N[C@@H](CC(C)C)C(=O)N[C@H](C(=O)N[C@@H](Cc2ccc(C(=O)O)cc2)C(=O)N[C@@H](CCC(=O)O)CC(=O)N(C)[C@@H](CCCCNC(=O)COCC(=O)NCCCC[C@@H](C(N)=O)N(C)C(=O)C[C@H](CCC(=O)O)NC(=O)[C@H](Cc2ccc(C(=O)O)cc2)NC(=O)[C@H]2NC(=O)[C@H](CC(C)C)NC(=O)[C@H]([C@@H](C)O)NC(=O)[C@H](CC(=O)O)NC(=O)[C@H](CO)NC(=O)[C@H](CCCNC(=N)N)N(C)C(=O)[C@@H](NC(C)=O)C(C)(C)SSC2(C)C)C(N)=O)C(C)(C)SSC1(C)C [compound 148] (I: Ac-[Pen][NMeR]SDTL[Pen][Phe(4-COOH)][β3hE][NMeK]-NH2 / II: Ac-[Pen][NMeR]SDTL[Pen][Phe(4-COOH)][β3hE][NMeK]-NH2; disulfide I:1-I:7, II:1-II:7; linker I:10-II:10 via Diglycolyl) was run?
A: 100 to 500 nM

Q: For CC(=O)N[C@@H]1C(=O)N(C)[C@@H](CCCNC(=N)N)C(=O)N[C@@H](CO)C(=O)N[C@@H](CC(=O)O)C(=O)N[C@@H]([C@@H](C)O)C(=O)N[C@@H](CC(C)C)C(=O)N[C@H](C(=O)N[C@@H](Cc2c[nH]c3ccccc23)C(=O)N[C@@H](CCC(=O)O)C(=O)N[C@H](CCCCNC(=O)COCC(=O)NCCCC[C@@H](NC(=O)[C@H](CCC(=O)O)NC(=O)[C@H](Cc2c[nH]c3ccccc23)NC(=O)[C@H]2NC(=O)[C@H](CC(C)C)NC(=O)[C@H]([C@@H](C)O)NC(=O)[C@H](CC(=O)O)NC(=O)[C@H](CO)NC(=O)[C@H](CCCNC(=N)N)N(C)C(=O)[C@@H](NC(C)=O)C(C)(C)SSC2(C)C)C(N)=O)C(N)=O)C(C)(C)SSC1(C)C [compound 67] (I: Ac-[Pen][NMeR]SDTL[Pen]WE[dK]-NH2 / II: Ac-[Pen][NMeR]SDTL[Pen]WE[dK]-NH2; disulfide I:1-I:7, II:1-II:7; linker I:10-II:10 via Diglycolyl), which IC50 is on record?
A: 100 to 500 nM

Q: Which IC50 does the source give for CC(=O)N[C@@H]1C(=O)N(C)[C@@H](CCCNC(=N)N)C(=O)N[C@@H](CO)C(=O)N[C@@H](CC(=O)O)C(=O)N[C@@H]([C@@H](C)O)C(=O)N[C@@H](CC(C)C)C(=O)N[C@H](C(=O)N[C@@H](Cc2ccc(-c3ccccc3)cc2)C(=O)N[C@@H](CCC(=O)O)CC(=O)N(C)[C@@H](CCCCNC(=O)COCC(=O)NCCCC[C@@H](C(N)=O)N(C)C(=O)C[C@H](CCC(=O)O)NC(=O)[C@H](Cc2ccc(-c3ccccc3)cc2)NC(=O)[C@H]2NC(=O)[C@H](CC(C)C)NC(=O)[C@H]([C@@H](C)O)NC(=O)[C@H](CC(=O)O)NC(=O)[C@H](CO)NC(=O)[C@H](CCCNC(=N)N)N(C)C(=O)[C@@H](NC(C)=O)C(C)(C)SSC2(C)C)C(N)=O)C(C)(C)SSC1(C)C [compound 150] (I: Ac-[Pen][NMeR]SDTL[Pen][Bip][β3hE][NMeK]-NH2 / II: Ac-[Pen][NMeR]SDTL[Pen][Bip][β3hE][NMeK]-NH2; disulfide I:1-I:7, II:1-II:7; linker I:10-II:10 via Diglycolyl) here?
A: 1000 to 10000 nM

Q: How did the IC50 turn out when CC(=O)N[C@@H]1C(=O)N(C)[C@@H](CCCNC(=N)N)C(=O)N[C@@H](CO)C(=O)N[C@@H](CC(=O)O)C(=O)N[C@@H]([C@@H](C)O)C(=O)N[C@@H](CC(C)C)C(=O)N[C@H](C(=O)N[C@@H](Cc2cccc3ccccc23)C(=O)N[C@@H](CCC(=O)O)C(=O)N(C)[C@H](CCCCNC(=O)COCC(=O)NCCCC[C@H](C(N)=O)N(C)C(=O)[C@H](CCC(=O)O)NC(=O)[C@H](Cc2cccc3ccccc23)NC(=O)[C@H]2NC(=O)[C@H](CC(C)C)NC(=O)[C@H]([C@@H](C)O)NC(=O)[C@H](CC(=O)O)NC(=O)[C@H](CO)NC(=O)[C@H](CCCNC(=N)N)N(C)C(=O)[C@@H](NC(C)=O)C(C)(C)SSC2(C)C)C(N)=O)C(C)(C)SSC1(C)C [compound 44] (I: Ac-[Pen][NMeR]SDTL[Pen][1Nal]E[dNMeK]-NH2 / II: Ac-[Pen][NMeR]SDTL[Pen][1Nal]E[dNMeK]-NH2; disulfide I:1-I:7, II:1-II:7; linker I:10-II:10 via Diglycolyl) was run?
A: 100 to 500 nM

Q: For CC(=O)N[C@@H]1C(=O)N(C)[C@@H](CCCNC(=N)N)C(=O)N[C@@H](CO)C(=O)N[C@@H](CC(=O)O)C(=O)N[C@@H]([C@@H](C)O)C(=O)N[C@@H](CC(C)C)C(=O)N[C@H](C(=O)N[C@@H](Cc2ccc(C(C)(C)C)cc2)C(=O)N[C@@H](CCC(=O)O)CC(=O)N[C@H](CCCCN)C(N)=O)C(C)(C)SSC1(C)C [compound 153] (Ac-[Pen][NMeR]SDTL[Pen][Phe(4-tBu)][β3hE][dK]-NH2; disulfide 1-7), which IC50 is on record?
A: 1000 to 10000 nM

same assay, conditions: Table 4-B; read-out: ELISA_α4β1 IC50

Q: For CC(=O)N[C@@H]1C(=O)N(C)[C@@H](CCCNC(=N)N)C(=O)N[C@@H](CO)C(=O)N[C@@H](CC(=O)O)C(=O)N[C@@H]([C@@H](C)O)C(=O)N[C@@H](CC(C)C)C(=O)N[C@H](C(=O)N[C@@H](Cc2ccc3ccccc3c2)C(=O)N[C@@H](CCC(=O)O)C(=O)N[C@H](CCCCN)C(N)=O)C(C)(C)SSC1(C)C [compound 210, Ac-Pen-N-Me-R-S-D-T-L-Pen-2-Nal-E-k-NH2] (Ac-[Pen][NMeR]SDTL[Pen][2Nal]E[dK]-NH2; disulfide 1-7), which IC50 is on record?
A: 200 nM

Q: With CC(=O)N[C@H]1CSSC(C)(C)[C@@H](C(=O)N[C@H](CCCCN)C(N)=O)NC(=O)[C@H](CC(C)C)NC(=O)[C@H]([C@@H](C)O)NC(=O)[C@H](CC(=O)O)NC(=O)[C@H](CO)NC(=O)[C@H](CCCNC(=N)N)N(C)C1=O [compound 202, Ac-C-N-Me-R-S-D-T-L-Pen-k-NH2] (Ac-C[NMeR]SDTL[Pen][dK]-NH2; disulfide 1-7) as the molecule, how does the IC50 read?
A: 1620 nM

Q: Which IC50 does the source give for CC(=O)N[C@H]1CSSC[C@@H](C(=O)NCC(=O)N[C@@H](CCC(=O)O)C(N)=O)NC(=O)[C@H](CC(C)C)NC(=O)[C@H]([C@@H](C)O)NC(=O)[C@H](CC(=O)O)NC(=O)[C@H](CO)NC(=O)[C@H](CCCNC(=N)N)N(C)C1=O [compound 198, Ac-C-N-Me-R-S-D-T-L-C-G-E-NH2] (Ac-C[NMeR]SDTLCGE-NH2; disulfide 1-7) here?
A: 1290 nM

Q: Which IC50 does the source give for CC(=O)N[C@H]1CSSC[C@@H](C(=O)NCC(=O)N[C@@H](CCC(=O)O)C(N)=O)NC(=O)[C@H](CC(C)C)NC(=O)[C@H]([C@@H](C)O)NC(=O)[C@H](CC(=O)O)NC(=O)[C@H](CO)NC(=O)[C@H](CCCNC(=N)N)NC1=O [compound 194, Ac-C-R-S-D-T-L-C-G-E-NH2] (Ac-CRSDTLCGE-NH2; disulfide 1-7) here?
A: 2020 nM

Q: Which IC50 does the source give for CC(=O)N[C@H]1CSSC[C@@H](C(=O)NCC(=O)N[C@@H](CCC(=O)O)C(=O)N[C@@H](CCCCNC(=O)CCOCCOCCOCCOCCOCCOCCOCCOCCOCCOCCOCCOCCOCCOCCOCCOCCOCCOCCOCCOCCOCCOCCOCCOCCOCCC(=O)NCCCC[C@H](NC(=O)[C@H](CCC(=O)O)NC(=O)CNC(=O)[C@@H]2CSSC[C@H](NC(C)=O)C(=O)N[C@@H](CCCNC(=N)N)C(=O)N[C@@H](CO)C(=O)N[C@@H](CC(=O)O)C(=O)N[C@@H]([C@@H](C)O)C(=O)N[C@@H](CC(C)C)C(=O)N2)C(N)=O)C(N)=O)NC(=O)[C@H](CC(C)C)NC(=O)[C@H]([C@@H](C)O)NC(=O)[C@H](CC(=O)O)NC(=O)[C@H](CO)NC(=O)[C@H](CCCNC(=N)N)NC1=O [compound 197, (Ac-C-R-S-D-T-L-C-G-E-K-NH2)2-PEG25] (I: Ac-CRSDTLCGEK-NH2 / II: Ac-CRSDTLCGEK-NH2; disulfide I:1-I:7, II:1-II:7; linker I:10-II:10 via X2) here?
A: 964 nM

Q: For CC(=O)N[C@H]1CSSC(C)(C)[C@@H](C(=O)N[C@@H](CCC(=O)O)C(=O)N[C@H](CCCCNC(=O)COCC(=O)NCCCC[C@@H](NC(=O)[C@H](CCC(=O)O)NC(=O)[C@H]2NC(=O)[C@H](CC(C)C)NC(=O)[C@H]([C@@H](C)O)NC(=O)[C@H](CC(=O)O)NC(=O)[C@H](CO)NC(=O)[C@H](CCCNC(=N)N)N(C)C(=O)[C@@H](NC(C)=O)CSSC2(C)C)C(N)=O)C(N)=O)NC(=O)[C@H](CC(C)C)NC(=O)[C@H]([C@@H](C)O)NC(=O)[C@H](CC(=O)O)NC(=O)[C@H](CO)NC(=O)[C@H](CCCNC(=N)N)N(C)C1=O [compound 205, (Ac-C-N-Me-R-S-D-T-L-Pen-E-k-NH2)2-DIG] (I: Ac-C[NMeR]SDTL[Pen]E[dK]-NH2 / II: Ac-C[NMeR]SDTL[Pen]E[dK]-NH2; disulfide I:1-I:7, II:1-II:7 (inferred); linker I:9-II:9 via Diglycolyl (inferred)), which IC50 is on record?
A: 444 nM

Q: Which IC50 does the source give for CC(=O)N[C@H]1CSSC[C@@H](C(=O)NCC(=O)N[C@@H](CCC(=O)O)C(=O)N[C@@H](CCCCN)C(N)=O)NC(=O)[C@H](CC(C)C)NC(=O)[C@H]([C@@H](C)O)NC(=O)[C@H](CC(=O)O)NC(=O)[C@H](CO)NC(=O)[C@H](CCCNC(=N)N)NC1=O [compound 196, Ac-C-R-S-D-T-L-C-G-E-K-NH2] (Ac-CRSDTLCGEK-NH2; disulfide 1-7) here?
A: 4810 nM

Q: For CC(=O)N[C@H]1CSSC[C@@H](C(N)=O)NC(=O)[C@H](CC(C)C)NC(=O)[C@H]([C@@H](C)O)NC(=O)[C@H](CC(=O)O)NC(=O)[C@H](CO)NC(=O)[C@H](CCCNC(=N)N)NC1=O [compound 195, Ac-C-R-S-D-T-L-C-NH2] (Ac-CRSDTLC-NH2; disulfide 1-7), which IC50 is on record?
A: 2880 nM
